Columns and labels:
Type in all cases: in vivo, human
healthy male volunteers [1] = assay: Area of dynamic mechanical hyperalgesia after intradermal capsaicin (cotton wool stroking); details: single oral dose (clobazam 20 mg, clonazepam 1 mg, tolterodine 1 mg), mean (SD)
Method: The area of dynamic mechanical hyperalgesia was determined by gently stroking a hand-held cotton wool tip on a 1 cm strip of the skin, at a rate of approximately 1 cm/s. Subjects were asked to report when the sensation changed from a non-painful to a painful sensation. The borders of dynamic hyperalgesia were delineated similarly to the determination of static hyperalgesia.

healthy male volunteers [2] = assay: Pain rating (VAS) after graded von Frey hair stimulation in the capsaicin hyperalgesic area
Method: Additionally, mechanical pain sensitivity was assessed using a set of seven weighted pinprick stimuli to obtain a stimulus-response function. The test was applied 1 cm inside the outer border of the pinprick hyperalgesic area, using a set of 7 graded von Frey hair mechanical stimulators with fixed stimulus intensities (custom-made at Aalborg University, Denmark). The flat contact area of the stimulators has a 0.2 mm diameter, and the 7 stimulators exert forces of 8, 16, 32, 64, 128, 256 and 512 mN. The order of stimulation was defined randomly by computer. The stimulators were applied at a rate of 2 s on/2 s off. Subjects were asked to give a pain rating for each stimulus on a 10 cm VAS. Two assessments for each stimulation were made and the mean of these 2 measurements was used for the data analysis.

healthy male volunteers [3] = assay: Conditioned pain modulation (cold pressor test and pressure algometry); details: difference in pressure pain detection threshold after vs before cold pressor test, mean (SD)
Source text: This method explores the endogenous modulation of nociceptive input. Under normal conditions, pain after application of a “test” nociceptive stimulus is attenuated by the application of an additional conditioning noxious stimulus to a remote body region, reflecting diffuse endogenous inhibition, [20]. In the present study, pressure pain detection threshold and cold pressure test (see below) were used as test and conditioning stimuli, respectively. An increase in pressure pain detection threshold immediately after cold pressure test was an indication of CPM.
The subjects placed their hand into a container filled with ice water. In order to maximize heterotopic stimulation, the hand contralateral to the side of pressure stimulation was used. The water was regularly mixed to maintain the temperature near to 0°C. The temperature of the water near the hand was monitored by a thermometer with a digital display (±0.1°C). The subjects were asked to keep the hand in the water until they felt an intolerable sensation of pain and were forced to remove the hand from the container, with a maximum time of 2 min.
Pressure pain detection threshold was measured again at the same time as the subject was withdrawing the hand from the water (one single measurement). CPM was measured as the difference in pressure pain detection threshold between measurements after and before the cold pressure test.

healthy male volunteers [4] = assay: Cutaneous repeated (5 stimuli) electrical stimulation, temporal summation threshold; details: mean (SD)
Source text: The stimulus burst used for single stimulus was repeated 5 times at 2 Hz, at constant intensity. The current intensity of the 5 stimuli was increased from 1 mA in steps of 0.5 mA until the subjects felt pain during the last 2–3 of the 5 stimuli (indicating temporal summation).
Three assessments were made and the mean of these 3 measurements was used for the data analysis.

healthy male volunteers [5] = assay: Cutaneous repeated (20 stimuli) electrical stimulation, VAS; set-up: AUC of VAS during 20 cutaneous electrical stimuli: unit not given beside the values; details: mean (SD); for Maximal VAS during 20 cutaneous electrical stimuli: VAS 0-10
Method: (§1) The stimulus burst used for single stimulus was repeated for a train of 20 pulses at 2 Hz, at an intensity corresponding to the temporal summation threshold. During this 10 s stimulation, pain intensity was continuously rated by the subject with an electronic VAS, and the area under the curve (AUC) was computed. Additionally, the maximal VAS during stimulation was recorded.

healthy male volunteers [6] = assay: Intramuscular single electrical stimulation pain threshold (tibialis anterior); details: mean (SD)
Method: Electrical stimulation was performed through electrodes placed distal to the lateral malleolus. A 25 ms, train-of-five, 1 ms, square-wave impulse (perceived as one stimulus), was delivered by a computer-controlled constant current stimulator (Digitimer DS7A, Neurospec, Letchworth Garden City, UK). The current intensity was increased from 1 mA in steps of 0.5 mA until a pain sensation was evoked.
(§2) A needle was placed in the tibialis anterior muscle, 14 cm distal from the caudal end of the patella and 20 mm in depth. The same single and repeated stimulation patterns and the same procedure described for cutaneous stimulation were used.

healthy male volunteers [7] = assay: Intramuscular repeated (20 stimuli) electrical stimulation, VAS; set-up: AUC of VAS during 20 intramuscular electrical stimuli: unit not given beside the values; details: mean (SD); for Maximal VAS during 20 intramuscular electrical stimuli: VAS 0-10
Method: as §1, §2

[8] = VAS 0-10, single oral dose (clobazam 20 mg, clonazepam 1 mg, tolterodine 1 mg), 30 min after medication, mean (SD)
[9] = VAS 0-10, single oral dose (clobazam 20 mg, clonazepam 1 mg, tolterodine 1 mg), 60 min after medication, mean (SD)
[10] = VAS 0-10, single oral dose (clobazam 20 mg, clonazepam 1 mg, tolterodine 1 mg), 90 min after medication, mean (SD)
[11] = VAS 0-10, single oral dose (clobazam 20 mg, clonazepam 1 mg, tolterodine 1 mg), 120 min after medication, mean (SD)
[12] = VAS 0-10, single oral dose (clobazam 20 mg, clonazepam 1 mg, tolterodine 1 mg), after flumazenil 0.2 mg iv, mean (SD)
[13] = baseline before medication, per drug session
[14] = single oral dose (clobazam 20 mg, clonazepam 1 mg, tolterodine 1 mg), 120 min after medication
[15] = single oral dose (clobazam 20 mg, clonazepam 1 mg, tolterodine 1 mg), after flumazenil 0.2 mg iv
[16] = single oral dose (clobazam 20 mg, clonazepam 1 mg, tolterodine 1 mg), 30 min after medication
[17] = single oral dose (clobazam 20 mg, clonazepam 1 mg, tolterodine 1 mg), 60 min after medication
[18] = single oral dose (clobazam 20 mg, clonazepam 1 mg, tolterodine 1 mg), 90 min after medication

CN1C(=O)CC(=O)N(c2ccccc2)c2cc(Cl)ccc21 [Clobazam]
Area of dynamic hyperalgesia (healthy male volunteers [1]; 30 min after medication): 22.3 (13.2) cm^2 | Area of dynamic hyperalgesia (healthy male volunteers [1]; 60 min after medication): 22.9 (12.4) cm^2 | Area of dynamic hyperalgesia (healthy male volunteers [1]; 90 min after medication): 22.4 (13.6) cm^2 | Area of dynamic hyperalgesia (healthy male volunteers [1]; 120 min after medication): 16.7 (13.0) cm^2 | Area of dynamic hyperalgesia (healthy male volunteers [1]; after flumazenil 0.2 mg iv): 21.3 (14.6) cm^2 | VAS after von Frey hair 8 mN (healthy male volunteers [2]; [8]): 1.1 (1.2) | VAS after von Frey hair 16 mN (healthy male volunteers [2]; [8]): 2.0 (2.1) | VAS after von Frey hair 32 mN (healthy male volunteers [2]; [8]): 2.0 (1.6) | VAS after von Frey hair 64 mN (healthy male volunteers [2]; [8]): 2.3 (2.0) | VAS after von Frey hair 128 mN (healthy male volunteers [2]; [8]): 2.9 (2.0) | VAS after von Frey hair 256 mN (healthy male volunteers [2]; [8]): 3.3(2.3) | VAS after von Frey hair 512 mN (healthy male volunteers [2]; [8]): 4.5 (2.5) | VAS after von Frey hair 8 mN (healthy male volunteers [2]; [9]): 1.9 (3.3) | VAS after von Frey hair 16 mN (healthy male volunteers [2]; [9]): 2.3 (3.2) | VAS after von Frey hair 32 mN (healthy male volunteers [2]; [9]): 2.4 (2.8) | VAS after von Frey hair 64 mN (healthy male volunteers [2]; [9]): 2.5 (2.0) | VAS after von Frey hair 128 mN (healthy male volunteers [2]; [9]): 3.4 (2.7) | VAS after von Frey hair 256 mN (healthy male volunteers [2]; [9]): 3.7 (2.6) | VAS after von Frey hair 512 mN (healthy male volunteers [2]; [9]): 4.8 (2.8) | VAS after von Frey hair 8 mN (healthy male volunteers [2]; [10]): 1.2 (1.4) | VAS after von Frey hair 16 mN (healthy male volunteers [2]; [10]): 1.4 (1.6) | VAS after von Frey hair 32 mN (healthy male volunteers [2]; [10]): 2.1 (2.2) | VAS after von Frey hair 64 mN (healthy male volunteers [2]; [10]): 2.1 (1.9) | VAS after von Frey hair 128 mN (healthy male volunteers [2]; [10]): 3.5 (2.3) | VAS after von Frey hair 256 mN (healthy male volunteers [2]; [10]): 3.9 (2.5) | VAS after von Frey hair 512 mN (healthy male volunteers [2]; [10]): 4.9 (2.6) | VAS after von Frey hair 8 mN (healthy male volunteers [2]; [11]): 1.3 (1.4) | VAS after von Frey hair 16 mN (healthy male volunteers [2]; [11]): 1.3 (1.5) | VAS after von Frey hair 32 mN (healthy male volunteers [2]; [11]): 1.9 (1.9) | VAS after von Frey hair 64 mN (healthy male volunteers [2]; [11]): 2.7 (2.7) | VAS after von Frey hair 128 mN (healthy male volunteers [2]; [11]): 3.0 (2.6) | VAS after von Frey hair 256 mN (healthy male volunteers [2]; [11]): 3.8 (2.6) | VAS after von Frey hair 512 mN (healthy male volunteers [2]; [11]): 4.7 (2.7) | VAS after von Frey hair 8 mN (healthy male volunteers [2]; [12]): 1.1 (1.1) | VAS after von Frey hair 16 mN (healthy male volunteers [2]; [12]): 1.3 (1.1) | VAS after von Frey hair 32 mN (healthy male volunteers [2]; [12]): 1.9 (1.9) | VAS after von Frey hair 64 mN (healthy male volunteers [2]; [12]): 2.2 (1.7) | VAS after von Frey hair 128 mN (healthy male volunteers [2]; [12]): 2.9 (2.1) | VAS after von Frey hair 256 mN (healthy male volunteers [2]; [12]): 3.9 (2.2) | VAS after von Frey hair 512 mN (healthy male volunteers [2]; [12]): 5.1 (2.5) | VAS after von Frey hair 512 mN (healthy male volunteers [2]; subgroup analysis (n = 8), 30 minutes, mean): 3.2 | VAS after von Frey hair 512 mN (healthy male volunteers [2]; subgroup analysis (n = 8), 120 minutes, mean): 5.1 | Conditioned pain modulation (healthy male volunteers [3]; [13]): 71 (98) kPa | Conditioned pain modulation (healthy male volunteers [3]; [14]): 99 (99) kPa | Conditioned pain modulation (healthy male volunteers [3]; [15]): 58 (67) kPa | Pain threshold after 5 cutaneous electrical stimuli (healthy male volunteers [4]; [13]): 8.3 (3.0) mA | Pain threshold after 5 cutaneous electrical stimuli (healthy male volunteers [4]; [16]): 8.7 (3.4) mA | Pain threshold after 5 cutaneous electrical stimuli (healthy male volunteers [4]; [17]): 8.7 (3.4) mA | Pain threshold after 5 cutaneous electrical stimuli (healthy male volunteers [4]; [18]): 9.3 (2.9) mA | Pain threshold after 5 cutaneous electrical stimuli (healthy male volunteers [4]; [14]): 9.9 (3.3) mA | Pain threshold after 5 cutaneous electrical stimuli (healthy male volunteers [4]; [15]): 9.7 (3.3) mA | Maximal VAS during 20 cutaneous electrical stimuli (healthy male volunteers [5]; [13]): 4.7 (1.8) | Maximal VAS during 20 cutaneous electrical stimuli (healthy male volunteers [5]; [16]): 4.9 (2.2) | Maximal VAS during 20 cutaneous electrical stimuli (healthy male volunteers [5]; [17]): 4.7 (1.9) | Maximal VAS during 20 cutaneous electrical stimuli (healthy male volunteers [5]; [18]): 4.3 (2.0) | Maximal VAS during 20 cutaneous electrical stimuli (healthy male volunteers [5]; [14]): 4.2 (1.8) | Maximal VAS during 20 cutaneous electrical stimuli (healthy male volunteers [5]; [15]): 4.5 (1.7) | AUC of VAS during 20 cutaneous electrical stimuli (healthy male volunteers [5]; [13]): 332 (142) | AUC of VAS during 20 cutaneous electrical stimuli (healthy male volunteers [5]; [16]): 338 (152) | AUC of VAS during 20 cutaneous electrical stimuli (healthy male volunteers [5]; [17]): 341 (167) | AUC of VAS during 20 cutaneous electrical stimuli (healthy male volunteers [5]; [18]): 328 (169) | AUC of VAS during 20 cutaneous electrical stimuli (healthy male volunteers [5]; [14]): 314 (146) | AUC of VAS during 20 cutaneous electrical stimuli (healthy male volunteers [5]; [15]): 339 (150) | Pain threshold after single intramuscular electrical stimulation (healthy male volunteers [6]; [13]): 1.7 (1.2) mA | Pain threshold after single intramuscular electrical stimulation (healthy male volunteers [6]; [14]): 3.1 (4.6) mA | Pain threshold after single intramuscular electrical stimulation (healthy male volunteers [6]; [15]): 2.5 (2.1) mA | Maximal VAS during 20 intramuscular electrical stimuli (healthy male volunteers [7]; [13]): 4.2 (1.5) | Maximal VAS during 20 intramuscular electrical stimuli (healthy male volunteers [7]; [14]): 4.5 (2.5) | Maximal VAS during 20 intramuscular electrical stimuli (healthy male volunteers [7]; [15]): 4.0 (1.9) | AUC of VAS during 20 intramuscular electrical stimuli (healthy male volunteers [7]; [13]): 284 (149) | AUC of VAS during 20 intramuscular electrical stimuli (healthy male volunteers [7]; [14]): 309 (188) | AUC of VAS during 20 intramuscular electrical stimuli (healthy male volunteers [7]; [15]): 292 (169)

From paper PMC3598812, “Evaluation of Anti-Hyperalgesic and Analgesic Effects of Two Benzodiazepines in Human Experimental Pain: A Randomized Placebo-Controlled Study” (PLoS ONE, 2013)
